# Where no end group is shown, it is not given here. [ ]: non-standard residue; d: D form. dAllylGly = C=CC[C@@H](N)C(=O)O; AllylGly = C=CC[C@H](N)C(=O)O
# Columns and labels:
# [1] = system: CaCo2 monolayers; assay: Lucifer Yellow (LY) permeability assay through CaCo2 monolayers; type: cell-based; design: key to Enhanced LY permeability: + indicates an enhancement of the permeability of the tight junctions were observed; − indicates no enhancement of permeability was observed; details: CaCo2 monolayers, Lucifer Yellow flux
# Source text: (§1) Agonists of tight junctions can be identified by their ability to enhance the flux of compounds (e.g. ions, Lucifer Yellow) through a cell monolayer that comprises tight junctions; or by their ability to reduce TEER across a cell monolayer that comprises tight junctions. Treatment of CaCo2 monolayers with peptide FCIGRL (SEQ ID NO: 1) led to a 51-fold enhancement of Lucifer Yellow permeability through CaCo2 monolayers compared to vehicle alone.
# (§2) Tight junction agonists can be identified and tested using the following method:
# (§3) Determination of TEER and Lucifer Yellow Flux
# (§4) Prepare Modified Hank's Balanced Salt Solution (MHBSS) by obtaining 1 L bottle of HBSS removing 10 ml of HBSS and replacing it with 10 ml HEPES buffer pH 7.0. Adjust pH to 7.4±0.1 using concentrated NaOH (10N).
# (§5) Remove CaCo-2 cells from incubator, grown on 12-well, 3.0 μM, polycarbonate Transwell® filters (Corning) and record passage#, date cells seeded and age in days.
# (§6) Aspirate cell culture medium from both the apical (AP) and basolateral (BL) compartments, replacing with 0.5 ml and 1.5 ml of MHBSS, respectively. Incubate cells at 37° C. for 30 minutes.
# (§7) Aspirate solution from the apical compartment of each filter (n=3 per condition) and replace with 0.5 ml of control and test solutions containing Lucifer Yellow and test compound if appropriate.
# (§8) Place all plates into incubator set at 37° C. (±0.2), 50 RPM (±5) for a total of 180 minutes.
# At t=60, 120 and 180 minutes remove […] from each basolateral compartment and place it in a 96-well plate for Lucifer Yellow analysis, replace with 100 μl of MHBSS.
# Make a Lucifer Yellow standard curve with the following dilutions (7500 μM, 3750 μM, 750 μM, 375 μM, 37.5 μM, 7.5 μM, 3.75 μM, 0.75 μM) and pipette 100 μL of each into a 96-well plate except for the first three standards mentioned above which require a 1:10 dilutions prior to transferring to the 96-well plate.
# Harvest the remaining start solutions and what is left in each apical compartment into 1.5 ml vials. Freeze at −20° C. for future analysis.
# Analyze each 96-well plate in a Tecan Spectra Fluor Plus using Magellan at 485 and 535 nm.
# (§9) Cells: CaCo-2 cells passage 40-60 grown on Transwell® plates for 21-28 days
# (§10) Culture Medium: DMEM supplemented with 10% fetal bovine serum, 1% NEAA, 1% Penn/Strep
# (§11) Buffers: Hank's Balanced Salt Solution (HBSS) without calcium and magnesium
# (§12) Flasks: 100×20 mm Tissue culture dish Falcon.
# (§13) Plates: 12 well polycarbonate Transwell® filters; 0.3 uM pore size
# [2] = system: CaCo2 monolayers; assay: Trans Epithelial Electric Resistance (TEER) across CaCo2 monolayers; type: cell-based; design: key to Reduced TEER: + indicates an enhancement of the permeability of the tight junctions were observed; − indicates no enhancement of permeability was observed; details: CaCo2 monolayers
# Source text: as §1
# Treatment of CaCo2 monolayers with peptide FCIGRL led to a 16-fold decrease in TEER across CaCo2 monolayers compared to vehicle alone.
# as §2, §3, §4, §5, §6
# Using the MilliCell®-ERS instrument (Millipore), measure and record the transepithelial electrical resistance (TEER) across each filter and record.
# as §7, §8
# At t=30, 60, 120 and 180 minutes, measure and record the transepithelial electrical resistance (TEER) across each filter using the MilliCell-ERS instrument.
# as §9, §10, §11, §12, §13
Substance,Enhanced LY permeability [1],Reduced TEER [2]
1 (FCIGRL; Peptide tight junction agonist) [compound 1],+,+
2 (F[AllylGly]IGRL) [compound 2],+,+
3 (F[AllylGly]IGR-NH2; N-terminus assumed; SMILES C=CC[C@H](NC(=O)[C@@H](N)Cc1ccccc1)C(=O)N[C@H](C(=O)NCC(=O)N[C@@H](CCCNC(=N)N)C(N)=O)[C@@H](C)CC) [compound 3],−,−
4 (F[dAllylGly]IGR-NH2; N-terminus assumed; SMILES C=CC[C@@H](NC(=O)[C@@H](N)Cc1ccccc1)C(=O)N[C@H](C(=O)NCC(=O)N[C@@H](CCCNC(=N)N)C(N)=O)[C@@H](C)CC) [compound 4],−,−
5 (M[AllylGly]IGRL-NH2; N-terminus assumed; SMILES C=CC[C@H](NC(=O)[C@@H](N)CCSC)C(=O)N[C@H](C(=O)NCC(=O)N[C@@H](CCCNC(=N)N)C(=O)N[C@@H](CC(C)C)C(N)=O)[C@@H](C)CC) [compound 5],+,−
6 (Q[AllylGly]IGRL-NH2; N-terminus assumed; SMILES C=CC[C@H](NC(=O)[C@@H](N)CCC(N)=O)C(=O)N[C@H](C(=O)NCC(=O)N[C@@H](CCCNC(=N)N)C(=O)N[C@@H](CC(C)C)C(N)=O)[C@@H](C)CC) [compound 6],−,−
7 (L[AllylGly]IGRL-NH2; N-terminus assumed; SMILES C=CC[C@H](NC(=O)[C@@H](N)CC(C)C)C(=O)N[C@H](C(=O)NCC(=O)N[C@@H](CCCNC(=N)N)C(=O)N[C@@H](CC(C)C)C(N)=O)[C@@H](C)CC) [compound 7],+,−
9 (T[AllylGly]IGRL-NH2; N-terminus assumed; SMILES C=CC[C@H](NC(=O)[C@@H](N)[C@@H](C)O)C(=O)N[C@H](C(=O)NCC(=O)N[C@@H](CCCNC(=N)N)C(=O)N[C@@H](CC(C)C)C(N)=O)[C@@H](C)CC) [compound 9],,−
14 (D[AllylGly]IGRL-NH2; N-terminus assumed; SMILES C=CC[C@H](NC(=O)[C@@H](N)CC(=O)O)C(=O)N[C@H](C(=O)NCC(=O)N[C@@H](CCCNC(=N)N)C(=O)N[C@@H](CC(C)C)C(N)=O)[C@@H](C)CC) [compound 14],,−
60 (F[AllylGly]IGAL-NH2; N-terminus assumed; SMILES C=CC[C@H](NC(=O)[C@@H](N)Cc1ccccc1)C(=O)N[C@H](C(=O)NCC(=O)N[C@@H](C)C(=O)N[C@@H](CC(C)C)C(N)=O)[C@@H](C)CC) [compound 60],+,
68 (F[AllylGly]IGTL-NH2; N-terminus assumed; SMILES C=CC[C@H](NC(=O)[C@@H](N)Cc1ccccc1)C(=O)N[C@H](C(=O)NCC(=O)N[C@H](C(=O)N[C@@H](CC(C)C)C(N)=O)[C@@H](C)O)[C@@H](C)CC) [compound 68],,+
69 (F[AllylGly]IGIL-NH2; N-terminus assumed; SMILES C=CC[C@H](NC(=O)[C@@H](N)Cc1ccccc1)C(=O)N[C@H](C(=O)NCC(=O)N[C@H](C(=O)N[C@@H](CC(C)C)C(N)=O)[C@@H](C)CC)[C@@H](C)CC) [compound 69],,−
70 (F[AllylGly]IGWL-NH2; N-terminus assumed; SMILES C=CC[C@H](NC(=O)[C@@H](N)Cc1ccccc1)C(=O)N[C@H](C(=O)NCC(=O)N[C@@H](Cc1c[nH]c2ccccc12)C(=O)N[C@@H](CC(C)C)C(N)=O)[C@@H](C)CC) [compound 70],+,
81 (F[AllylGly]IGRT-NH2; N-terminus assumed; SMILES C=CC[C@H](NC(=O)[C@@H](N)Cc1ccccc1)C(=O)N[C@H](C(=O)NCC(=O)N[C@@H](CCCNC(=N)N)C(=O)N[C@H](C(N)=O)[C@@H](C)O)[C@@H](C)CC) [compound 81],−,

# Reference: patent US8557763B2, “Synthetic peptides that enhance tight junction permeability” (Alba Therapeutics Corporation, priority 2007, dated 2013)
